From US11707557B2, “Compositions and devices incorporating water-insoluble therapeutic agents and methods of the use thereof” (COOK MEDICAL TECHNOLOGIES LLC, priority 2014, dated 2023)
Converted amounts (≈) assume the structure as drawn.

How the values were obtained:
[1] = Drug concentrations obtained using EGCG at 50 mg per ml (microscopic check for particulates); assay type: physicochemical; settings: for Drug Concentration: 1 ml of water; for Particulates present: under a microscope
Procedure: EGCG at 50 mg/ml and drug at approximately 250 micrograms per ml were dissolved in the listed solvent and dried down in a test tube under nitrogen. 1 ml of water was added, followed by vortexing. The solutions were examined for particulate matter under a microscope. If no particulates were present, the process was repeated with a higher drug amount. All the tested drugs remained in solution at the listed concentrations except for nystatin and hesperidin.

[2] = Release from PLGA microspheres +/- EGCG or tannic acid; assay type: physicochemical; settings: over a 10 days period
Procedure: Method: The method involved pipetting a solution of the polymer PLGA (usually 20% w/v) and drug (usually 5% w/w to polymer) and EGCG (e.g. 20% w/w/ to polymer) in dichlomethane (DCM) (5 ml) into 100 ml of 2.5% PVA solution in water stirring at 450 rpm. The suspension was left stirring for 2 hours and the microspheres washed 4 times in distilled water. The microspheres were then dried under vacuum for 2 days. Drug encapsulation was measured by dissolving a known weight of microspheres in 1 ml of dichloromethane followed by immediate dilution to 10 ml in 60:40 acetonitrile/water. The amount of drug or EGCG in the top and bottom phase of this solution was measured using HPLC methods (mobile phase 58:37:5 Acetonitrile:water:methanol. 1 ml per min flow on a c18 column with detection at 232 nm)
Tannic acid: An alternative method was used, termed a water-in oil-in water emulsion. […] This forms a primary emulsion of water droplets in the PLGA solution stabilized by Span. When this emulsion was pipetted into the PVA solution the microspheres formed well. […] The microspheres were a light brown in color indicative of tannic acid encapsulation.
Methods: In these studies, 10 mg of microspheres were suspended in 2 ml of phosphate buffered saline (pH 7.4 10 mM phosphate) in microcentrifuge tubes and tumbled at 8 rpm at 37° C. The tubes were then centrifuged at 12000×g and the supernatants collected for drug analysis by HPLC. 2 ml of fresh PBS was then placed on top of the microspheres which were returned to the 37° C. oven for continued incubation with tumbling.
At the end of the study the residual mass of polymer and drug was dissolved in DCM and drug extracted into 60:40 acetonitrile:water to measure residual drug. The amounts of residual drug were 89% for plga alone (at 31 days), 16% for EGCG and 8% for tannic acid (both at 51 days) as expressed as a % of the original loading.

[3] = Solubility of EGCG and tannic acid in propylene glycol and PEG 300
Excerpt: EGCG and tannic acid are fairly soluble in alcohol and acetonitrile. […] These solutions become more viscous and paste-like as the percentage of gallate in solution is increased. When non-drug containing pastes were placed in water, the contents of the paste (gallate, PG or PEG), which are all water soluble, dissolved away.

pig skin = system: pig skin
Procedure: Various gallate-containing drug formulations were prepared and applied to ex vivo pig skin samples. Fresh pig skin was obtained from a local butcher, processed within three hours and then frozen. For experiments, the skin was slowly thawed, excess fat removed from the base, and cut into 1×2 cm squares. These squares were mounted and clamped on Franz diffusion cells, which kept the tissue moist and isolated and exposed a 6 mm diameter of the upper skin surface for the application of a drug loaded formulation. Skin samples were then frozen and later cryosectioned in 50 μm slices. The drug in the slices was extracted and measured by HPLC or radioactive doping methods. A drug depth profile was then established for each drug.
1. Formulations containing a drug and a gallate. The drugs were dissolved in ethanol at various concentrations along with either EGCG or TA (500 mg/mL). Each solution was pipetted into 6×5 mm diameter aluminum cups (approximately 3 mm in height) by filling and allowing the ethanol to evaporate at 50° C. until all the solution was used up (80 mg per cup).
2. Formulations containing a drug, propylene glycol (“PG”) and a gallate. 300 mg of propylene glycol was mixed with 200 mg of EGCG or TA until dissolved. Various amounts of drug were added to this mixture and dissolved. 80 mg of the resulting viscous solution was weighed into 6×5 mm aluminum cups.
3. Control Formulations. Control formulations were prepared using Glaxal base and Plogel. Glaxal base is a cream used by compounding pharmacists to manufacture topical formulations of drugs. Plogel is an alternative used for dermal formulations. […] Drug was added to a known weight of Glaxal or Plogel and levigated to produce a standard drug dispersion. These formulations were prepared the evening before the experiment. For some drugs, radioactive drug (where available) was also added as a doping additive to facilitate quantitation in tissues.
Eutectics: In some cases, gallate containing compounds and drugs were formulated in eutectic mixtures. These included a 60:40 (% w/w) mixture of menthol with ibuprofen. These agents acted as a carrier for retinoic acid, which was then dissolved in this liquid. The 3-drug eutectic/solution was then blended into the CMC/poloxamer emulsion containing EGCG (2.5%). […] The emulsion was stabilized with poloxamer.
Example 29. Pig skin studies. Aluminum cups containing drug formulations were inverted on top of the pig skin in the Franz diffusion cell so that the formulation contents were in contact with the skin. […]
Analysis. […] The amount of drug in each group of skin sections was then determined using HPLC methods, or by radioactivity counting on a liquid scintillation counter. The amount of drug in each group of skin sections was expressed as μg/g or mg/g of tissue.

[4] = Solubility of drug in EGCG or tannic acid solutions (dried down, PBS or water added, 0.22 micron filtered, HPLC or absorbance)
Procedure: PBS (EGCG) or water (tannic acid) was added and the final solution filtered through a 0.22 micron filter to remove any particulates. The solutions were analyzed for drug concentration using HPLC.
PBS (EGCG) or water (tannic acid) was added and the final solution filtered through a 0.22 micron filter to remove particulates. The solution was then analyzed for drug concentration using absorbance spectroscopy at 450 nm.
PBS (EGCG) or water (tannic acid) was added and the final solution was filtered through a 0.22 micron filter to remove any particulates and the solution was analyzed for drug concentration using HPLC.
PBS (EGCG) or water (tannic acid) was added and the final solution filtered through a 0.22 micron filter to remove any particulates and the solution was analyzed for drug concentration using HPLC.
PBS (EGCG) or water (Tannic acid) was added and the final solution was filtered through a 0.22 um filter to remove any particulates and the solution was analyzed for drug concentration using HPLC.
Method: drug and EGCG or tannic acid were dried down from acetonitrile (or methanol for tannic acid) solutions at various drug to EGCG or tannic acid ratios. PBS (EGCG) or water (Tannic acid pH adjusted to 7) was added and the final solution was filtered through a 0.22 um filter to remove any particulates and the solution was analyzed for drug concentration using HPLC methods.

[5] = Lidocaine release from propylene glycol:gallate pastes into PBS; assay type: physicochemical
Procedure: For each formulation, 100 mg of paste was placed in the base of a round bottomed 15 mL glass test tube. […] At the start of the release experiment, 10 ml of PBS was added and the tubes left for various time periods, after which all 10 mL of the release media was removed for drug analysis. The residual mass was observed from the top, and the drop in diameter from 8 mm noted as a semi-quantitative assessed of paste pellet degradation. It was not possible to measure the degradation fully quantitatively at that time, as the pellets were fragile and water-swollen. After a few days the pellets became less fragile, and were removed from the tubes and dried on tissue paper before weighing. The drop in weight from 100 mg was then noted as the % degradation and compared with the visual observations.

Compound: CC1C(=O)OC2C(O)C34C5CC(C(C)(C)C)C36C(OC(=O)C6O)OC4(C(=O)O5)C12O (centres unmarked) [ginkgolide B]
- Visual appearance [1]: clear solution
- Drug Concentration [1]: 250 microgram/ml
- Particulates present [1]: no

Compound: COc1ccc2c(c1)c(CC(=O)O)c(C)n2C(=O)c1ccc(Cl)cc1 [indomethacin]
- Visual appearance [1]: clear solution
- Drug Concentration [1]: 250 microgram/ml
- Particulates present [1]: no

Compound: COc1ccc([C@@H]2CC(=O)c3c(O)cc(O[C@@H]4O[C@H](CO[C@@H]5O[C@@H](C)[C@H](O)[C@@H](O)[C@H]5O)[C@@H](O)[C@H](O)[C@H]4O)cc3O2)cc1O [hesperedin]
- Visual appearance [1]: almost clear
- Drug Concentration [1]: 125 microgram/ml
- Particulates present [1]: very

Compound: O=C(O[C@@H]1Cc2c(O)cc(O)cc2O[C@@H]1c1cc(O)c(O)c(O)c1)c1cc(O)c(O)c(O)c1 [EGCG, epi gallo catechin gallate]
- release of EGCG or Tannic acid from PLGA microspheres [2]: approximately 45%
- solubility in PEG 300 liquid [3]: 25 % w/w
- solubility in propylene glycol [3]: higher than 50 % w/w

Compound: CC1=CC(=O)c2c(O)cccc2C1=O [plumbagin]
- Visual appearance [1]: clear
- Drug Concentration [1]: 250 microgram/ml
- Particulates present [1]: no

Compound: C[C@@H]1[C@H](O)[C@@H](C)/C=C/C=C/CC/C=C/C=C/C=C/C=C/C(O[C@H]2O[C@H](C)[C@@H](O)[C@H](N)[C@@H]2O)CC2O[C@](O)(CC(O)C(O)CCC(O)CC(O)CC(O)CC(=O)O[C@H]1C)CC(O)C2C(=O)O (some centres unmarked) [nystatin]
- Visual appearance [1]: clear solution
- Drug Concentration [1]: 125 microgram/ml
- Particulates present [1]: very

Compound: CC[C@@]1(O)C(=O)OCc2c1cc1n(c2=O)Cc2cc3ccccc3nc2-1 [camptothecin]
- Visual appearance [1]: clear
- Drug Concentration [1]: 50 microgram/ml
- Particulates present [1]: no

Compound: CC1=C(/C=C/C(C)=C/C=C/C(C)=C/C(=O)O)C(C)(C)CCC1 [retinoic acid]
- drug uptake by pig skin relative to controls (pig skin): higher levels of uptake as compared to the control formulations

Compound: COc1ccc([C@@H]2CC(=O)c3c(O)cc(O)cc3O2)cc1O [hesperetin]
- Visual appearance [1]: clear solution
- Drug Concentration [1]: 250 microgram/ml
- Particulates present [1]: no

Compound: CO[C@H]1C[C@@H]2CC[C@@H](C)[C@@](O)(O2)C(=O)C(=O)N2CCCC[C@H]2C(=O)O[C@H]([C@H](C)C[C@@H]2CC[C@@H](O)[C@H](OC)C2)CC(=O)[C@H](C)/C=C(\C)[C@@H](O)[C@@H](OC)C(=O)[C@H](C)C[C@H](C)/C=C/C=C/C=C/1C [rapamycin]
- solubility ([4]; EGCG solution (200 mg/ml) in PBS, aqueous with cosolvent or surfactant or cyclodextrin, thermodynamic from solid, drug concentration solubilised at maximum EGCG concentration, EGCG 200 mg per ml, PBS): ~300 µg/mL (≈ 328 µM)
- effect of temperature on solubility ([4]; EGCG solutions): little effect of temperature
- stability of EGCG solutions of the drug ([4]; EGCG solutions, 24 hours): stable for 24 hours
- solubility ([4]; tannic acid solution (500 mg/ml) in water, aqueous with cosolvent or surfactant or cyclodextrin, thermodynamic from solid, drug concentration solubilised at maximum tannic acid concentration, tannic acid 500 mg/ml, water): ~1500 µg/mL (≈ 1640 µM)
- stability of tannic acid solutions of the drug ([4]; tannic acid solutions, 24 hours): stable for 24 hours
- effect of temperature on solubility ([4]; tannic acid solutions, 37° C. or 50° C. compared to 23° C.): no effect of temperature
- solubility ([4]; water, free solubility in water, no EGCG or tannic acid): 2 to 3 µg/mL (≈ 2.19 to 3.28 µM)

Compound: CC(C)(C)[C@]1(O)CC2OC(=O)CC23C(=O)OC2OC(=O)[C@H](O)C231 (some centres unmarked) [bilobalide]
- Visual appearance [1]: clear solution
- Drug Concentration [1]: 250 microgram/ml
- Particulates present [1]: no

Compound: O=C(OC[C@H]1O[C@@H](OC(=O)c2cc(O)c(O)c(OC(=O)c3cc(O)c(O)c(O)c3)c2)[C@H](OC(=O)c2cc(O)c(O)c(OC(=O)c3cc(O)c(O)c(O)c3)c2)[C@@H](OC(=O)c2cc(O)c(O)c(OC(=O)c3cc(O)c(O)c(O)c3)c2)[C@@H]1OC(=O)c1cc(O)c(O)c(OC(=O)c2cc(O)c(O)c(O)c2)c1)c1cc(O)c(O)c(OC(=O)c2cc(O)c(O)c(O)c2)c1 [tannic acid]
- release of EGCG or Tannic acid from PLGA microspheres [2]: ~65%
- solubility in PEG 300 liquid [3]: 25 % w/w

Compound: O=c1c(O)c(-c2ccc(O)c(O)c2)oc2cc(O)cc(O)c12 [quercetin]
- Visual appearance [1]: clear
- Drug Concentration [1]: 250 microgram/ml
- Particulates present [1]: no

Compound: CCN(CC)CC(=O)Nc1c(C)cccc1C [lidocaine]
- period of drug release ([5]; EGCG:propylene glycol pastes, 20% drug loading): 2-4 weeks
- drug release ([5]; all EGCG:propylene glycol pastes, 5% drug loading, in approximately 2 days): ~100%
- period of drug release ([5]; tannic acid:propylene glycol pastes, 5% drug loading): ~7 days
- period of drug release ([5]; tannic acid:propylene glycol pastes, 20% drug loading): 4-5 weeks
